The values that follow come from PubChem BioAssay AID1632 (University of Pittsburgh Molecular Library Screening Center, 2009).

SMILES strings stand for the structures. Records with an inconclusive call do not appear.

One test deals with hexokinase 1 [Trypanosoma brucei]. The test is described as follows: TbHK1 enzyme inhibition, concentration series – biochemical, IC50, dose response (AID 1632). The following applies: recombinant TbHK1 enzyme assay, absorbance read-out.
By IC50 is commonly meant the point on the concentration scale where inhibition reaches its midpoint. As for `O=[N+]([O-])c1cc(/C=N\Nc2nccs2)ccc1O`, the IC50 is 2690 nM.

Staying with this test, now noted: recombinant TbHK1 enzyme assay, absorbance read-out; inhibition; at 100 µM; stronger effect = higher value.
The term inhibition denotes the percentage by which the read-out fell short of the control. As for `O=C(Cn1sc2ccccc2c1=O)NC12CC3CC(CC(C3)C1)C2`, the inhibition was determined as 74.6%.
`C/C(=C/CCC(C)[C@H]1CC[C@@]2(C)C3=C(CC[C@]12C)[C@@]1(C)CCC(=O)C(C)(C)[C@@H]1CC3)C(=O)O` (some centres undefined): the inhibition was determined as 55.3%.
Still for that read-out and setting: the same measure for `Cc1ccc(CNC(=O)CCS(=O)(=O)c2ccc(Br)cc2)cc1`: 82.3%; for `Cc1ccccc1-n1sc2cc(F)ccc2c1=O`: 87.8%; for `O=[N+]([O-])c1cc(/C=N\Nc2nccs2)ccc1O`: 33.3%.
The same measure, in the same setting: the same measure for `CCCCc1ccc(/C=C2/C(=O)ON=C2c2ccccc2)s1`: 32.1%; for `O=C(O)CCCCC1CCSS1` (centres undefined): 96.4%.
As to `CCCCCCCCCCCNC(=O)c1ccoc1C`, the inhibition was 73.4%.
Still for that read-out and setting: next, `COC(=O)c1ccccc1NC(=O)CCS(=O)(=O)c1ccc(Br)cc1`: 71.7%; `COc1cc(/C=C(\C#N)c2nc3c(s2)CCCC3)ccc1O`: 42.4%; `O=c1c2ccccc2sn1-c1ccccc1`: 22.3%.
Consider `COc1ccc(C(=O)Nc2cc(Cl)ccc2C(=O)O)cc1`, for which the inhibition amounted to 75.7%.
The same measure, in the same setting: the same measure for `CCOC(=O)Cc1csc(-n2sc3ccccc3c2=O)n1`: 46.9%.
